Experimental data from patent publication US12479847B2 (DANA-FARBER CANCER INSTITUTE, INC., priority 2019, dated 2025).

Assays:
Experiment in all cases: KINOMEscan (ScanMAX) kinase profiling
Assay type in all cases: binding
panel of 468 kinases [1] = biological target: T1, panel of 468 kinases (Homo sapiens, UniProt P00533); settings: EGFR; 1 μM; read-out: % control
T1 construct: purchased KINOMEscan (ScanMAX) service

panel of 468 kinases [2] = biological target: T2, panel of 468 kinases (Homo sapiens, UniProt P07949, M918T); settings: RET(M918T); 1 μM; read-out: % control
T2 construct: purchased KINOMEscan (ScanMAX) service

panel of 468 kinases [3] = biological target: T3, panel of 468 kinases (Homo sapiens, UniProt P08631); settings: HCK; 1 μM; read-out: % control
T3 construct: purchased KINOMEscan (ScanMAX) service

panel of 468 kinases [4] = biological target: T4, panel of 468 kinases (Homo sapiens, UniProt P11309); settings: PIM1; 1 μM; read-out: % control
T4 construct: purchased KINOMEscan (ScanMAX) service

panel of 468 kinases [5] = biological target: T5, panel of 468 kinases (Homo sapiens, UniProt Q9BRS2); settings: RIOK1; 1 μM; read-out: % control
T5 construct: purchased KINOMEscan (ScanMAX) service
T5 sequence (Q9BRS2 1-568): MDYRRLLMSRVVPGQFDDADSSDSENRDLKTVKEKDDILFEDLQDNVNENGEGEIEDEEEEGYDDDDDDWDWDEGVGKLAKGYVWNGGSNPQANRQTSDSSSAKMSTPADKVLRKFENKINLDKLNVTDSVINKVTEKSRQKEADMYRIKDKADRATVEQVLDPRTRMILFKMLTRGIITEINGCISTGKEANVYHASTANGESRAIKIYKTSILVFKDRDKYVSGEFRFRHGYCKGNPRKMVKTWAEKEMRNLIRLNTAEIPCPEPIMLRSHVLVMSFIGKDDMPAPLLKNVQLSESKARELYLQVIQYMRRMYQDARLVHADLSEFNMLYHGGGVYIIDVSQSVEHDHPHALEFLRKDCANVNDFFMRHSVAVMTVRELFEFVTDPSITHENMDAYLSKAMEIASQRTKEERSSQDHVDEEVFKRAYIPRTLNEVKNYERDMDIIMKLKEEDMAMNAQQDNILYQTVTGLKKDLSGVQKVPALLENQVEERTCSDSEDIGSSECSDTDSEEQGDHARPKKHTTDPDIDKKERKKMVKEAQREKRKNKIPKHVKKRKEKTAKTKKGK

panel of 468 kinases [6] = biological target: T6, panel of 468 kinases (Homo sapiens, UniProt Q9NRM7); settings: LATS2; 1 μM; read-out: % control
T6 construct: purchased KINOMEscan (ScanMAX) service
T6 sequence (Q9NRM7 1-1088): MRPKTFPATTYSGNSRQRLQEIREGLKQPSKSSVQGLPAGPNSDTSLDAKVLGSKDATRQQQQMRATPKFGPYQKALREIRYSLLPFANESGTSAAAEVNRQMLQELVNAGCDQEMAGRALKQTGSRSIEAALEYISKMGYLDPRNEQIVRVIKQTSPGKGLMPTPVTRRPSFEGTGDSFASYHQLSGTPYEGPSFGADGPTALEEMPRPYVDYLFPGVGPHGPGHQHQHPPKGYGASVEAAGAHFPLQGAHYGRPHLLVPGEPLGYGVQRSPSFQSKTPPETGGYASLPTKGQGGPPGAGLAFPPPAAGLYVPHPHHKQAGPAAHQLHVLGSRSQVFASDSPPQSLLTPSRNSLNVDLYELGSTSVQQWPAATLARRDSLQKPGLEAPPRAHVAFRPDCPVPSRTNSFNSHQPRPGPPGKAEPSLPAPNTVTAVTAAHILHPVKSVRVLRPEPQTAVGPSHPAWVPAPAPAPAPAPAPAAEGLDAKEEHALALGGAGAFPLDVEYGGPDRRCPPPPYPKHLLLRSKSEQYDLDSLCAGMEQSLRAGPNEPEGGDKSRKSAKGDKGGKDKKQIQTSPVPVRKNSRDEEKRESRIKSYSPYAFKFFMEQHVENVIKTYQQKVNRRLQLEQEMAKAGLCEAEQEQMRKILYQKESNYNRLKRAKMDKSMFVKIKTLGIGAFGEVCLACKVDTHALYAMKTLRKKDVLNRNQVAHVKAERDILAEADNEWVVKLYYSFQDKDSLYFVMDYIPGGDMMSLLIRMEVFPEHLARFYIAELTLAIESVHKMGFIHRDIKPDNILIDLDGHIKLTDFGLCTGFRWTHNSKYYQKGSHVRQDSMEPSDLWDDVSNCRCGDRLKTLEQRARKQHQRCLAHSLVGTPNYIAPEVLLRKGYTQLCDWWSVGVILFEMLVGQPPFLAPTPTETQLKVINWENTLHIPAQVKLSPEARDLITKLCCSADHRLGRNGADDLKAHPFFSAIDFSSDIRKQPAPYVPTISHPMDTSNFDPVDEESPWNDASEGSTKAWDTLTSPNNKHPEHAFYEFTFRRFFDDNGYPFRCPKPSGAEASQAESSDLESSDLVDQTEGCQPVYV

panel of 468 kinases [7] = biological target: T7, panel of 468 kinases (Homo sapiens, UniProt Q9P1W9); settings: PIM2; 1 μM; read-out: % control
T7 construct: purchased KINOMEscan (ScanMAX) service

panel of 468 kinases [8] = biological target: T8, panel of 468 kinases (Homo sapiens, UniProt Q9UKE5); settings: TNIK; 1 μM; read-out: % control
T8 construct: purchased KINOMEscan (ScanMAX) service
T8 sequence (Q9UKE5 whole entry): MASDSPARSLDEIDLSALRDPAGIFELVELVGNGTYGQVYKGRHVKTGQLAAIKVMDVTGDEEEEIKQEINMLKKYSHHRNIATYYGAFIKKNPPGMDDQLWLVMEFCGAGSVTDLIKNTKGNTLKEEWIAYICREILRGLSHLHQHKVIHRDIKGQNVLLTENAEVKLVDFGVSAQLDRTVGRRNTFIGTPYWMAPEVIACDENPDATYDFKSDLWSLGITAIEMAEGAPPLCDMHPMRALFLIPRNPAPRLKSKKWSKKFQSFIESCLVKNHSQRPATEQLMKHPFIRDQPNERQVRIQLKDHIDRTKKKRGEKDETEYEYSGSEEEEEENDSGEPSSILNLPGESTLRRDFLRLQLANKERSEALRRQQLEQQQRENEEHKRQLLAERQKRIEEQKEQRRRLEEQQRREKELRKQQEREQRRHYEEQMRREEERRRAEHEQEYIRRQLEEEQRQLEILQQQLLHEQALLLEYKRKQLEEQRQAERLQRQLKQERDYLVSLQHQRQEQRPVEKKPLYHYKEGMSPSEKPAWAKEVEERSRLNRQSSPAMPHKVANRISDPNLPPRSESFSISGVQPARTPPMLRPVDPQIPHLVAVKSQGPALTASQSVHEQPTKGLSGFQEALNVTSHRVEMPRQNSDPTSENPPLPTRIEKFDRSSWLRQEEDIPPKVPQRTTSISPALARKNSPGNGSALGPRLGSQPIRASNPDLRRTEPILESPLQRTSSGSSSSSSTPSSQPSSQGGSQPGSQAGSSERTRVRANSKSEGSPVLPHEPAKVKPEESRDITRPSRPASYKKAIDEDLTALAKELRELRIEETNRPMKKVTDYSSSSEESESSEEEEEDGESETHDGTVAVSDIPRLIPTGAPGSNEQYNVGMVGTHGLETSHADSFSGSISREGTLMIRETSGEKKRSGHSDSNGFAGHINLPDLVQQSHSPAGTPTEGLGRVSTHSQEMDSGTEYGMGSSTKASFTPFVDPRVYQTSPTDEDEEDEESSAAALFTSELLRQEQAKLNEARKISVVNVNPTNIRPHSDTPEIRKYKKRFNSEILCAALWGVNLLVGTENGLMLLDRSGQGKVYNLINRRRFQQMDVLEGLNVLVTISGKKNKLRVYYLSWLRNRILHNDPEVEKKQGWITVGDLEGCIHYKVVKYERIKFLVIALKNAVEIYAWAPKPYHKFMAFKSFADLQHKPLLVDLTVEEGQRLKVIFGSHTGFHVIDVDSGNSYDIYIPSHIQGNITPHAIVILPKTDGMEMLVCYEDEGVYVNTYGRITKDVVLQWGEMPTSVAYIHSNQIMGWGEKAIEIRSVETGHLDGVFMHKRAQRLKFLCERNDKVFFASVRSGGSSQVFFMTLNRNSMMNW

T7 sequence (Q9P1W9 whole entry): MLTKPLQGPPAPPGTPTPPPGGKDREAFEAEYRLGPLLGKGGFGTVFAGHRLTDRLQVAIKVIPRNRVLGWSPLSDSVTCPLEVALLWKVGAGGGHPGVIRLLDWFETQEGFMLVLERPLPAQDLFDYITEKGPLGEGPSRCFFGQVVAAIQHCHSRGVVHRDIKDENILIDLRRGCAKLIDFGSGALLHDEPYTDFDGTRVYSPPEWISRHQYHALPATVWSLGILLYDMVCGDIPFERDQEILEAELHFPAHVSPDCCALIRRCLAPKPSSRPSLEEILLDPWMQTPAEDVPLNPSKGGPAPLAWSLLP
T3 sequence (P08631 whole entry): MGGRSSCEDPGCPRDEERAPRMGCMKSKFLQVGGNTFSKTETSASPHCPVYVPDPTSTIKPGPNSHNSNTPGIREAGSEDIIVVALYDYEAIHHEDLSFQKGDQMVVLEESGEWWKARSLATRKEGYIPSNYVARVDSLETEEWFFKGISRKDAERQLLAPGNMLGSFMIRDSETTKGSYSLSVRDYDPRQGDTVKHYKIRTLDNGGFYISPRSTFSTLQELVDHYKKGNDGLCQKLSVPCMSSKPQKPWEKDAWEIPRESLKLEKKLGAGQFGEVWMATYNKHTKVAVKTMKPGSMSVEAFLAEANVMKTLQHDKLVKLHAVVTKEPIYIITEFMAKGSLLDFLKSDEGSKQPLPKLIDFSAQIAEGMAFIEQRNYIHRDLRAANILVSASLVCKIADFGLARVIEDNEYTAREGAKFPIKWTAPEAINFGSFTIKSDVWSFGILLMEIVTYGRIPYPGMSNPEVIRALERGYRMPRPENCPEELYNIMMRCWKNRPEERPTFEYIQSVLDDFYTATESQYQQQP
T2 sequence (P07949 29-1114 M918T): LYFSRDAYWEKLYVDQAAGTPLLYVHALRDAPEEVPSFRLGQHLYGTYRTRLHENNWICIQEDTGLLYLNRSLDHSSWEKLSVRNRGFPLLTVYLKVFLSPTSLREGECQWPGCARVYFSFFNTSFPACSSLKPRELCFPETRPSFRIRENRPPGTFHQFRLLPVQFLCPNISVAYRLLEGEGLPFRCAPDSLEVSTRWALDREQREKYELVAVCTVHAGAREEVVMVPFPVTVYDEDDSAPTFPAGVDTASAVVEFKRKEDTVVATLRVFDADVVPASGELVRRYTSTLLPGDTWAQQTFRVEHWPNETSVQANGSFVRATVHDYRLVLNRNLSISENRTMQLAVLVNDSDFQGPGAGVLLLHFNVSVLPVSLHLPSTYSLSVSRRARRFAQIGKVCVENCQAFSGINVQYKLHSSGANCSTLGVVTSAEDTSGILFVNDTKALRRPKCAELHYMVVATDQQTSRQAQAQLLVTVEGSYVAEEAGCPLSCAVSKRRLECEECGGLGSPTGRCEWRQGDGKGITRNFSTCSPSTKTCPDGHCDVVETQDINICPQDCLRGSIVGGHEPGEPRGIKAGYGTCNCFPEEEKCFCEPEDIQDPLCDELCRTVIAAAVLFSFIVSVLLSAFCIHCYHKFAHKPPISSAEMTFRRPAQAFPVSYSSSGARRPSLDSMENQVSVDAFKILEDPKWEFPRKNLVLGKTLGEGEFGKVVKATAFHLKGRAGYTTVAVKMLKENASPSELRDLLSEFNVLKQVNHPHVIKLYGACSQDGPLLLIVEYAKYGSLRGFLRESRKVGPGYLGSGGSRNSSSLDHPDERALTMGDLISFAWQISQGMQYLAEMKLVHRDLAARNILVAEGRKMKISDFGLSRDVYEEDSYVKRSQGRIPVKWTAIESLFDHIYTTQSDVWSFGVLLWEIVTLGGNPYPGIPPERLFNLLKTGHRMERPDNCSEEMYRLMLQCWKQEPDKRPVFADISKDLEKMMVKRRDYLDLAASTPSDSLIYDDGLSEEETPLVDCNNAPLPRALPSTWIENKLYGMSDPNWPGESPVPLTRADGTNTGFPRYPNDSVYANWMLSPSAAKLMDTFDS
T1 sequence (P00533 25-1210): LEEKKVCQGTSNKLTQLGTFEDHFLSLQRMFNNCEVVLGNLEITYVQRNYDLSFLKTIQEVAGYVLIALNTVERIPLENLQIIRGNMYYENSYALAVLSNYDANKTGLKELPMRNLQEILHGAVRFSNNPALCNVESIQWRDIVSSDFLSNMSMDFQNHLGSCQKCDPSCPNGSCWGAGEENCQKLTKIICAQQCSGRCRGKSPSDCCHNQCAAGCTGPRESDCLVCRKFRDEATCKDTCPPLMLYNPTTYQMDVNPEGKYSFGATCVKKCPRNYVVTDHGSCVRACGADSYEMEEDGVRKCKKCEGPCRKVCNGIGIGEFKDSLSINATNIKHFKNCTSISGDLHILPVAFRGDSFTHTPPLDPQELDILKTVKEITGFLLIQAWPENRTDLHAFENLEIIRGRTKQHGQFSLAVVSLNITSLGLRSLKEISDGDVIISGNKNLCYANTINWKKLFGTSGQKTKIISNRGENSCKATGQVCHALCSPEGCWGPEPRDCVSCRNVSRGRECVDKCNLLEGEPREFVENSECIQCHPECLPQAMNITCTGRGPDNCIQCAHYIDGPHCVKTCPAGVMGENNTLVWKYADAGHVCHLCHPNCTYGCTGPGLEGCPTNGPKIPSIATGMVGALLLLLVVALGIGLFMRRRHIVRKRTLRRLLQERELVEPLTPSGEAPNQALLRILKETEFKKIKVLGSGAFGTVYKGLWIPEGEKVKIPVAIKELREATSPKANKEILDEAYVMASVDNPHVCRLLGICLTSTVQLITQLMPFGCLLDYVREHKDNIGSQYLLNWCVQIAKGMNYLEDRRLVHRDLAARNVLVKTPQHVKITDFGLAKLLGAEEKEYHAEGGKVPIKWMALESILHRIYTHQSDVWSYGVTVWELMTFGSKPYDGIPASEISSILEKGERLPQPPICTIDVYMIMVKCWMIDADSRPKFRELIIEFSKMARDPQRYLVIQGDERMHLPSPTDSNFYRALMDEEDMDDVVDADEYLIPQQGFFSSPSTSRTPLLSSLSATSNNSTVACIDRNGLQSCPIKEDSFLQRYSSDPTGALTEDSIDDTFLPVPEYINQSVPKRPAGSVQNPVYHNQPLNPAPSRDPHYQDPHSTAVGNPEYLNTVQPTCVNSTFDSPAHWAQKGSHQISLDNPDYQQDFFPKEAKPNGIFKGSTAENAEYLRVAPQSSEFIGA
T4 sequence (P11309 whole entry): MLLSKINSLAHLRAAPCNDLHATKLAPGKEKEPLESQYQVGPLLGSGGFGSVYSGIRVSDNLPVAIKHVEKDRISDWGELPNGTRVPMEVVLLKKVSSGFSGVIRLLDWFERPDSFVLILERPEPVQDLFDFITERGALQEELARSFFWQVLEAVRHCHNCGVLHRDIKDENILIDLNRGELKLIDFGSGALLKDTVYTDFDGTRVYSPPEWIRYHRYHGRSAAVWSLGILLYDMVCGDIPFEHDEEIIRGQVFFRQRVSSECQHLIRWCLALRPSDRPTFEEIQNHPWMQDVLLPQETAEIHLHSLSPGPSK

Row | Compound | remaining binding at 1 µM (panel of 468 kinases [1]) | remaining binding at 1 µM (panel of 468 kinases [2]) | remaining binding at 1 µM (panel of 468 kinases [3]) | remaining binding at 1 µM (panel of 468 kinases [4]) | remaining binding at 1 µM (panel of 468 kinases [5]) | remaining binding at 1 µM (panel of 468 kinases [6]) | remaining binding at 1 µM (panel of 468 kinases [7]) | remaining binding at 1 µM (panel of 468 kinases [8])
1 | CNc1nc(Nc2ccc(C(=O)N3CCC(N4CCOCC4)CC3)c3c2OCO3)nc2[nH]cc(Cl)c12 [Compound 75, (7-((5-chloro-4-(methylamino)-7H-pyrrolo[2,3-d]pyrimidin-2-yl)amino)benzo[d][1,3]dioxol-4-yl)(4-morpholinopiperidin-1-yl)methanone] | 80% | 90% | 100% | 99% | 48% | 90% | 100% | 39%
2 | CNc1nc(Nc2ccc(S(=O)(=O)N3CCC(N4CCOCC4)CC3)cc2OC)nc2[nH]cc(Cl)c12 [Compound 12, 5-chloro-N2-(2-methoxy-4-((4-morpholinopiperidin-1-yl)sulfonyl)phenyl)-N4-methyl-7H-pyrrolo[2,3-d]pyrimidine-2,4-diamine] | 89% | 100% | 98% | 100% | 100% | 100% | 99% | 92%
3 | CNc1nc(Nc2ccc(P3(=O)CCN(C4CCOCC4)CC3)cc2OC)nc2[nH]cc(Cl)c12 [Compound 77, 4-(4-((5-chloro-4-(methylamino)-7H-pyrrolo[2,3-d]pyrimidin-2-yl)amino)-3-methoxyphenyl)-1-(tetrahydro-2H-pyran-4-yl)-1,4-azaphosphinane 4-oxide] | 84% | 94% | 100% | 100% | 98% | 93% | 100% | 72%
